# Source: PubChem BioAssay AID2060898 (Molecular Pharmacology Branch, DTP, NCI, 2025)
# Tested on: 616215-338-R-J1-PDC complex spheroid viability
# Assay: Anticancer human tumor 616215-338-R-J1-PDC patient-derived colon adenocarcinoma cell line growth inhibition [RAS]
# Settings: for IC50: curve of first compound; for viability, T/C: stronger effect = lower value
# How it was run: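 Tumour cells grown as complex spheroids with HUVEC endothelial cells and mesenchymal stem cells, treated with RAS pathway inhibitor combinations. Each agent spans half-log steps from near clinical Cmax, or 10 microM where Cmax is unknown.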
# [1] = second compound 0.000949 µM, first compound 0.0316 µM
# [2] = second compound 0.000949 µM, first compound 0.1 µM
# [3] = second compound 0.000949 µM, first compound 0.316 µM
# [4] = second compound 0.000949 µM, first compound 1 µM
# [5] = second compound 0.003 µM, first compound 0.0316 µM
# [6] = second compound 0.003 µM, first compound 0.1 µM
# [7] = second compound 0.003 µM, first compound 0.316 µM
# [8] = second compound 0.003 µM, first compound 1 µM
# [9] = second compound 0.00949 µM, first compound 0.0316 µM
# [10] = second compound 0.00949 µM, first compound 0.1 µM
# [11] = second compound 0.00949 µM, first compound 0.316 µM
# [12] = second compound 0.00949 µM, first compound 1 µM
# [13] = second compound 0.03 µM, first compound 0.0316 µM
# [14] = second compound 0.03 µM, first compound 0.1 µM
# [15] = second compound 0.03 µM, first compound 0.316 µM
# [16] = second compound 0.03 µM, first compound 1 µM
# [17] = second compound 0.0949 µM, first compound 0.0316 µM
# [18] = second compound 0.0949 µM, first compound 0.1 µM
# [19] = second compound 0.0949 µM, first compound 0.316 µM
# [20] = second compound 0.0949 µM, first compound 1 µM
# [21] = second compound 0.3 µM, first compound 0.0316 µM
# [22] = second compound 0.3 µM, first compound 0.1 µM
# [23] = second compound 0.3 µM, first compound 0.316 µM
# [24] = second compound 0.3 µM, first compound 1 µM
# 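Note: spheroids exposed to agents for seven days before viability readout.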
# 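Throughout, for viability, T/C: 100% = DMSO vehicle control viability.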
structure (smiles),measurement,setting,value
C=CC(=O)Nc1cc(Nc2nccc(-c3cn(C)c4ccccc34)n2)c(OC)cc1N(C)CCN(C)C + CCn1c(-c2cc(N3CCN(C)CC3)cnc2C(C)OC)c2c3cc(ccc31)-c1csc(n1)CC(NC(=O)C1CC1C)C(=O)N1CCCC(N1)C(=O)OCC(C)(C)C2,IC50,second compound 0.000949 µM,> 1000 nM
same,IC50,second compound 0.003 µM,522 nM
same,IC50,second compound 0.00949 µM,216 nM
same,IC50,second compound 0.03 µM,3.16 nM
same,IC50,second compound 0.0949 µM,< 3.16 nM
same,IC50,second compound 0.3 µM,< 3.16 nM
same,"viability, T/C","second compound 0.000949 µM, first compound 0.00316 µM",106%
same,"viability, T/C","second compound 0.000949 µM, first compound 0.01 µM",102%
same,"viability, T/C",[1],119%
same,"viability, T/C",[2],101%
same,"viability, T/C",[3],84.1%
same,"viability, T/C",[4],56.3%
same,"viability, T/C","second compound 0.003 µM, first compound 0.00316 µM",113%
same,"viability, T/C","second compound 0.003 µM, first compound 0.01 µM",109%
same,"viability, T/C",[5],104%
same,"viability, T/C",[6],81.9%
same,"viability, T/C",[7],54.7%
same,"viability, T/C",[8],43.7%
same,"viability, T/C","second compound 0.00949 µM, first compound 0.00316 µM",77.3%
same,"viability, T/C","second compound 0.00949 µM, first compound 0.01 µM",80.4%
same,"viability, T/C",[9],72%
same,"viability, T/C",[10],63%
same,"viability, T/C",[11],43.6%
same,"viability, T/C",[12],28.7%
same,"viability, T/C","second compound 0.03 µM, first compound 0.00316 µM",44.4%
same,"viability, T/C","second compound 0.03 µM, first compound 0.01 µM",48.8%
same,"viability, T/C",[13],48.4%
same,"viability, T/C",[14],54.9%
same,"viability, T/C",[15],34.5%
same,"viability, T/C",[16],32.4%
same,"viability, T/C","second compound 0.0949 µM, first compound 0.00316 µM",30.8%
same,"viability, T/C","second compound 0.0949 µM, first compound 0.01 µM",34.1%
same,"viability, T/C",[17],36.6%
same,"viability, T/C",[18],36.9%
same,"viability, T/C",[19],34.7%
same,"viability, T/C",[20],33%
same,"viability, T/C","second compound 0.3 µM, first compound 0.00316 µM",39.2%
same,"viability, T/C","second compound 0.3 µM, first compound 0.01 µM",33.1%
same,"viability, T/C",[21],39.1%
same,"viability, T/C",[22],37.3%
same,"viability, T/C",[23],33.5%
same,"viability, T/C",[24],32.5%
CC(C)NCC(C(=O)N1CCN(c2ncnc3c2C(C)CC3O)CC1)c1ccc(Cl)cc1 (centres undefined) + CCn1c(-c2cc(N3CCN(C)CC3)cnc2C(C)OC)c2c3cc(ccc31)-c1csc(n1)CC(NC(=O)C1CC1C)C(=O)N1CCCC(N1)C(=O)OCC(C)(C)C2,IC50,second compound 0.000949 µM,7560 nM
same,IC50,second compound 0.003 µM,5480 nM
same,IC50,second compound 0.00949 µM,2380 nM
same,IC50,second compound 0.03 µM,< 31.6 nM
same,IC50,second compound 0.0949 µM,< 31.6 nM
same,IC50,second compound 0.3 µM,< 31.6 nM
same,"viability, T/C",[1],109%
same,"viability, T/C",[2],106%
same,"viability, T/C",[3],102%
same,"viability, T/C",[4],106%
same,"viability, T/C","second compound 0.000949 µM, first compound 3.16 µM",78.2%
same,"viability, T/C","second compound 0.000949 µM, first compound 10 µM",41%
same,"viability, T/C",[5],113%
same,"viability, T/C",[6],107%
same,"viability, T/C",[7],103%
same,"viability, T/C",[8],105%
same,"viability, T/C","second compound 0.003 µM, first compound 3.16 µM",67.5%
same,"viability, T/C","second compound 0.003 µM, first compound 10 µM",30.9%
same,"viability, T/C",[9],96.1%
same,"viability, T/C",[10],85.1%
same,"viability, T/C",[11],81.7%
same,"viability, T/C",[12],82.1%
same,"viability, T/C","second compound 0.00949 µM, first compound 3.16 µM",39.6%
same,"viability, T/C","second compound 0.00949 µM, first compound 10 µM",21.6%
same,"viability, T/C",[13],50.8%
same,"viability, T/C",[14],40%
same,"viability, T/C",[15],36.5%
same,"viability, T/C",[16],47.7%
same,"viability, T/C","second compound 0.03 µM, first compound 3.16 µM",26.1%
same,"viability, T/C","second compound 0.03 µM, first compound 10 µM",14.5%
same,"viability, T/C",[17],43.7%
same,"viability, T/C",[18],34.9%
same,"viability, T/C",[19],33.3%
same,"viability, T/C",[20],25.9%
same,"viability, T/C","second compound 0.0949 µM, first compound 3.16 µM",22%
same,"viability, T/C","second compound 0.0949 µM, first compound 10 µM",11.1%
same,"viability, T/C",[21],52%
same,"viability, T/C",[22],29.9%
same,"viability, T/C",[23],32.8%
same,"viability, T/C",[24],26.6%
same,"viability, T/C","second compound 0.3 µM, first compound 3.16 µM",19.4%
same,"viability, T/C","second compound 0.3 µM, first compound 10 µM",11.1%
